Values of other authors, collected in patent EP2133696A1, “Very low concentrations of troponin I or T for assessing a cardiovascular risk with respect to the administration of anti-inflammatory drugs” (Spanuth, Eberhardt, priority 2008, dated 2009).

CS(=O)(=O)c1ccc(C2=C(c3ccccc3)C(=O)OC2)cc1 [Rofecoxib]
additional cardiovascular incidents (myocardial infarction, stroke) (25 mg rofecoxib compared with a placebo, after 18 months of follow-up): 16 per 1,000 treated patients | blood pressure levels (25 mg rofecoxib versus placebo, early post-observation phase): higher blood pressure levels | rise in the rate of serious thromboembolic incidents (APPROVE study, led to premature discontinuation, patients without any recognisable cardiovascular risk): 3.9 times
